According to ChEMBL document CHEMBL3745631, “Discovery of highly potent and selective Bruton's tyrosine kinase inhibitors: Pyridazinone analogs with improved metabolic stability” (Bioorg Med Chem Lett, 2016):

Key:
[1] = target: Platelet-derived growth factor receptor alpha (Homo sapiens) (UniProt P16234); assay: Inhibition of PDGFR alpha (unknown origin) at 1 uM
[2] = target: Serine/threonine-protein kinase 24 (Homo sapiens) (UniProt Q9Y6E0); assay: Inhibition of MST3 (unknown origin) at 1 uM
[3] = target: Ribosomal protein S6 kinase alpha-5 (Homo sapiens) (UniProt O75582); assay: Inhibition of MSK1 (unknown origin) at 1 uM
[4] = target: Protein-tyrosine kinase 6 (Homo sapiens) (UniProt Q13882); assay: Inhibition of Brk (unknown origin) at 1 uM
Canis familiaris = assay: Clearance in dog at 1 mg/kg, iv by LC-MS/MS analysis; format: ADME, organism-based, Canis lupus familiaris; settings: in vivo
[5] = target: Serine/threonine-protein kinase MRCK alpha (Homo sapiens) (UniProt Q5VT25); assay: Inhibition of MRCK alpha (unknown origin) at 1 uM
[6] = target: Cyclin-dependent kinase 1/cyclin B1 (Homo sapiens) (UniProt P06493+P14635); assay: Inhibition of CDK1/cyclinB (unknown origin) at 1 uM; format: protein-complex assay
[7] = target: Tyrosine-protein kinase Fes/Fps (Homo sapiens) (UniProt P07332); assay: Inhibition of Fes (unknown origin) at 1 uM
[8] = target: Mitogen-activated protein kinase kinase kinase 8 (Homo sapiens) (UniProt P41279); assay: Inhibition of Cot (unknown origin) at 1 uM
Sequence of Mitogen-activated protein kinase kinase kinase 8 (Homo sapiens) (P41279 whole entry): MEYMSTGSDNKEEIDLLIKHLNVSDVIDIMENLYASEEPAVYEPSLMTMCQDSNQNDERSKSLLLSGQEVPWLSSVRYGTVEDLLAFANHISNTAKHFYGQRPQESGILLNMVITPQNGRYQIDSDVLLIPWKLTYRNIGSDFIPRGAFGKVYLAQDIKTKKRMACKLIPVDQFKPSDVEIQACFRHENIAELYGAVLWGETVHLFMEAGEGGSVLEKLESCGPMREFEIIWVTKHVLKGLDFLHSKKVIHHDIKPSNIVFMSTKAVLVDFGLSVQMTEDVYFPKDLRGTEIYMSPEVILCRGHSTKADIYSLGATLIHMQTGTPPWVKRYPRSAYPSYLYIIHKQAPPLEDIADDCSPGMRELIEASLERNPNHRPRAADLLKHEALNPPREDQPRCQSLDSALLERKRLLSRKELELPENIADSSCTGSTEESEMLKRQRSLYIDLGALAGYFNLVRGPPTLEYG

[9] = target: Glycogen synthase kinase-3 alpha (Homo sapiens) (UniProt P49840); assay: Inhibition of GSK3 alpha (unknown origin) at 1 uM
[10] = target: Serine/threonine-protein kinase WNK2 (Homo sapiens) (UniProt Q9Y3S1); assay: Inhibition of WNK2 (unknown origin) at 1 uM
[11] = target: Focal adhesion kinase 1 (Homo sapiens) (UniProt Q05397); assay: Inhibition of FAK (unknown origin) at 1 uM
[12] = target: Dual specificity mitogen-activated protein kinase kinase 6 (Homo sapiens) (UniProt P52564); assay: Inhibition of MKK6 (unknown origin) at 1 uM
[13] = target: Inhibitor of nuclear factor kappa-B kinase subunit beta (Homo sapiens) (UniProt O14920); assay: Inhibition of IKKbeta (unknown origin) at 1 uM
[14] = target: SRSF protein kinase 3 (Homo sapiens) (UniProt Q9UPE1); assay: Inhibition of MSSK1 (unknown origin) at 1 uM
Sequence of SRSF protein kinase 3 (Homo sapiens) (Q9UPE1 whole entry): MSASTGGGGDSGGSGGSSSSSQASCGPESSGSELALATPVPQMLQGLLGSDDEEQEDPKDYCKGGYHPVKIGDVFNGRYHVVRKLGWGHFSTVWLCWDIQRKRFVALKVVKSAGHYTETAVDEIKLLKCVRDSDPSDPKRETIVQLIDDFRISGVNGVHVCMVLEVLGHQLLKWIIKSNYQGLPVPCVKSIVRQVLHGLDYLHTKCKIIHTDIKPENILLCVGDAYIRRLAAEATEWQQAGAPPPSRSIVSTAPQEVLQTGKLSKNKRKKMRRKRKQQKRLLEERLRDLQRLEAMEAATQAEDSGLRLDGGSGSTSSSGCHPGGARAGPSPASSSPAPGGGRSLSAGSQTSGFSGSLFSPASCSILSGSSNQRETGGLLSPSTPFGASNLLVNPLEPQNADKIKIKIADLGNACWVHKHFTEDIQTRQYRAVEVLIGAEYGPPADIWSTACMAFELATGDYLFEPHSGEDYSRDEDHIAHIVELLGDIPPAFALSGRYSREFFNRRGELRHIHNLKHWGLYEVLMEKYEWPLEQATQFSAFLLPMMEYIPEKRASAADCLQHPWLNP

[15] = target: Serine/threonine-protein kinase SIK2 (Homo sapiens) (UniProt Q9H0K1); assay: Inhibition of SIK2 (unknown origin) at 1 uM
[16] = target: NUAK family SNF1-like kinase 1 (Homo sapiens) (UniProt O60285); assay: Inhibition of ARK5 (unknown origin) at 1 uM
[17] = target: MAP kinase-activated protein kinase 3 (Homo sapiens) (UniProt Q16644); assay: Inhibition of MAPKAPK3 (unknown origin) at 1 uM
Sequence of MAP kinase-activated protein kinase 3 (Homo sapiens) (Q16644 whole entry, looked up): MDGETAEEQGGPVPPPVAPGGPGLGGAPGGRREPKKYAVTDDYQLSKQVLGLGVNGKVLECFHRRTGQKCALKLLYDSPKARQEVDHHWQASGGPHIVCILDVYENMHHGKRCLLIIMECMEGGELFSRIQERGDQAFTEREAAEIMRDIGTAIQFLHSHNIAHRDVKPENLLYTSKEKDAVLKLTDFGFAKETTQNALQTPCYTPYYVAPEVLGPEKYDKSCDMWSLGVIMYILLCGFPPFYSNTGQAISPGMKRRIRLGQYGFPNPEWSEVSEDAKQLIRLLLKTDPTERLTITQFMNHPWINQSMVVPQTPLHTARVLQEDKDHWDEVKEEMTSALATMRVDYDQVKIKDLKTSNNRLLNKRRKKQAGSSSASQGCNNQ

[18] = target: Proto-oncogene tyrosine-protein kinase receptor Ret (Homo sapiens) (UniProt P07949); assay: Inhibition of Ret (unknown origin) at 1 uM
[19] = target: Serine/threonine-protein kinase Sgk2 (Homo sapiens) (UniProt Q9HBY8); assay: Inhibition of SGK2 (unknown origin) at 1 uM
[20] = target: Casein kinase I isoform gamma-2 (Homo sapiens) (UniProt P78368); assay: Inhibition of CK1 gamma2 (unknown origin) at 1 uM
[21] = target: Serine/threonine-protein kinase NLK (Homo sapiens) (UniProt Q9UBE8); assay: Inhibition of NLK (unknown origin) at 1 uM
[22] = target: Testis-specific serine/threonine-protein kinase 1 (Homo sapiens) (UniProt Q9BXA7); assay: Inhibition of TSSK1 (unknown origin) at 1 uM
Sequence of Testis-specific serine/threonine-protein kinase 1 (Homo sapiens) (Q9BXA7 whole entry): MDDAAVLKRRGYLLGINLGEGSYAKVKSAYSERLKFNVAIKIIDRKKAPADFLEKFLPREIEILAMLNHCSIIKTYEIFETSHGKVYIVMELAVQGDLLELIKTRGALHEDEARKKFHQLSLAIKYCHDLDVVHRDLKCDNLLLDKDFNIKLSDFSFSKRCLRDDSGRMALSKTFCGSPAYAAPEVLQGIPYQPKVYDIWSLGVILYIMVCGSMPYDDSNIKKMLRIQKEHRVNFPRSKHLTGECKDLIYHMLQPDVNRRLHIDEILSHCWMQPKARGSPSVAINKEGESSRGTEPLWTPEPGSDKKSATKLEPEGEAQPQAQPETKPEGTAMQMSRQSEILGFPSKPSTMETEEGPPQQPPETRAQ

[23] = target: Receptor-interacting serine/threonine-protein kinase 2 (Homo sapiens) (UniProt O43353); assay: Inhibition of RIPK2 (unknown origin) at 1 uM
[24] = target: Eukaryotic elongation factor 2 kinase (Homo sapiens) (UniProt O00418); assay: Inhibition of eEF-2K (unknown origin) at 1 uM
[25] = target: Phosphatidylinositol 4,5-bisphosphate 3-kinase catalytic subunit gamma isoform (Homo sapiens) (UniProt P48736); assay: Inhibition of PI3K-G (unknown origin) at 1 uM
[26] = target: Tyrosine-protein kinase ABL1 (Homo sapiens) (UniProt P00519); assay: Inhibition of Abl (unknown origin) at 1 uM
[27] = target: Calcium/calmodulin-dependent protein kinase type IV (Homo sapiens) (UniProt Q16566); assay: Inhibition of CamK4(unknown origin) at 1 uM
[28] = target: Myosin light chain kinase (Homo sapiens) (UniProt Q32MK0); assay: Inhibition of MYLK3 (unknown origin) at 1 uM
[29] = target: Epidermal growth factor receptor (Homo sapiens) (UniProt P00533); assay: Inhibition of EGFR (unknown origin) at 1 uM
[30] = target: Serine/threonine-protein kinase Sgk3 (Homo sapiens) (UniProt Q96BR1); assay: Inhibition of SGK3 (unknown origin) at 1 uM
Sequence of Serine/threonine-protein kinase Sgk3 (Homo sapiens) (Q96BR1 whole entry): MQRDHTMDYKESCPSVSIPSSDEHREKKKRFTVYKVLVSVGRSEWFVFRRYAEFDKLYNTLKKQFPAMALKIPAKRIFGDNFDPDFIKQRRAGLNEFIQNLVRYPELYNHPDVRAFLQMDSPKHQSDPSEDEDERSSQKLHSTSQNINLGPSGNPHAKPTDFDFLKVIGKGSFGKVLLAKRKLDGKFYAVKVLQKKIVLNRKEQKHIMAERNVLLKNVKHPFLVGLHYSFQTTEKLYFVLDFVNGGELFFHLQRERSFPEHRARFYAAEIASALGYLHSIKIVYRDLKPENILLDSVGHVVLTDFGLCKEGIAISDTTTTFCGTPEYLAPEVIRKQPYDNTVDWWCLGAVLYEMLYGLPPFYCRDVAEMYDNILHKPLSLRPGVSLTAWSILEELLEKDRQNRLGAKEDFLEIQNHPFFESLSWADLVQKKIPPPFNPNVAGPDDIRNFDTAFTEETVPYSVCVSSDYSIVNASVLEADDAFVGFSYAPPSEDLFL

[31] = target: RAC-beta serine/threonine-protein kinase (Homo sapiens) (UniProt P31751); assay: Inhibition of AKT2 (unknown origin) at 1 uM
Sequence of RAC-beta serine/threonine-protein kinase (Homo sapiens) (P31751 whole entry): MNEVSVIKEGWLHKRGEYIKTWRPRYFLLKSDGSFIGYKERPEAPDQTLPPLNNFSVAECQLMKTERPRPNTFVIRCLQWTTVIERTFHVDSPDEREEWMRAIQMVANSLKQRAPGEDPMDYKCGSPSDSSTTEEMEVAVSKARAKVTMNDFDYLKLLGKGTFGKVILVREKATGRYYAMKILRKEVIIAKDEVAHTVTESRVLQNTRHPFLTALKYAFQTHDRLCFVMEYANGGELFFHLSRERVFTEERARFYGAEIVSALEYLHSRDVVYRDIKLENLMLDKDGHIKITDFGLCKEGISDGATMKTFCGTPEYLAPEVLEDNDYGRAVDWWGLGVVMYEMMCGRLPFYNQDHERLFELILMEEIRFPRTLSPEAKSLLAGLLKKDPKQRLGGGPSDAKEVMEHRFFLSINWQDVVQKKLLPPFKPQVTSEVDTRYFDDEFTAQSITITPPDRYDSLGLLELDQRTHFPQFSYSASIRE

[32] = target: Tyrosine-protein kinase Fyn (Homo sapiens) (UniProt P06241); assay: Inhibition of Fyn (unknown origin) at 1 uM
Liver microsome = assay: Intrinsic clearance in human liver microsomes at 1 uM by LC-MS/MS analysis in absence of NADPH; format: ADME
Mus musculus = assay: Clearance in mouse at 1 mg/kg, iv by LC-MS/MS analysis; format: ADME, organism-based; settings: in vivo
[33] = target: Maternal embryonic leucine zipper kinase (Homo sapiens, UniProt Q14680); assay: Inhibition of MELK (unknown origin) at 1 uM
Sequence of Maternal embryonic leucine zipper kinase (Q14680 whole entry, looked up): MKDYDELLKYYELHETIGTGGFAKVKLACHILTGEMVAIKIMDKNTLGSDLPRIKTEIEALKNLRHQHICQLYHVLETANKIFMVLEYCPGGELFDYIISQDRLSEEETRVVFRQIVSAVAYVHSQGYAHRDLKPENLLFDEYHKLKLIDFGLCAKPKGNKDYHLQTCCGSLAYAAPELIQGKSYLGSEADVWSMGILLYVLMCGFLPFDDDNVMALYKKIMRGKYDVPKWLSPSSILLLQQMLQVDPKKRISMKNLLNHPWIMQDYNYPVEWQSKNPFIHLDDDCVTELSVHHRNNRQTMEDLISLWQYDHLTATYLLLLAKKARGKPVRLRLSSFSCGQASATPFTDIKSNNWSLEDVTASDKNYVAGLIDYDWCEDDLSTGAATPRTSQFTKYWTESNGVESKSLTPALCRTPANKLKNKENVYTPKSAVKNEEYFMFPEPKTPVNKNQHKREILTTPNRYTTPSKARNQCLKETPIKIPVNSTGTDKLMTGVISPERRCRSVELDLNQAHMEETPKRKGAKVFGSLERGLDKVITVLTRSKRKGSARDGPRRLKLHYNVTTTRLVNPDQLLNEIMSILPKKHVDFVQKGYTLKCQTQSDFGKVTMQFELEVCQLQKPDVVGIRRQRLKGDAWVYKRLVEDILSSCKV

[34] = target: Dual specificity protein kinase CLK3 (Homo sapiens) (UniProt P49761); assay: Inhibition of CLK3 (unknown origin) at 1 uM
Sequence of Dual specificity protein kinase CLK3 (Homo sapiens) (P49761 whole entry, looked up): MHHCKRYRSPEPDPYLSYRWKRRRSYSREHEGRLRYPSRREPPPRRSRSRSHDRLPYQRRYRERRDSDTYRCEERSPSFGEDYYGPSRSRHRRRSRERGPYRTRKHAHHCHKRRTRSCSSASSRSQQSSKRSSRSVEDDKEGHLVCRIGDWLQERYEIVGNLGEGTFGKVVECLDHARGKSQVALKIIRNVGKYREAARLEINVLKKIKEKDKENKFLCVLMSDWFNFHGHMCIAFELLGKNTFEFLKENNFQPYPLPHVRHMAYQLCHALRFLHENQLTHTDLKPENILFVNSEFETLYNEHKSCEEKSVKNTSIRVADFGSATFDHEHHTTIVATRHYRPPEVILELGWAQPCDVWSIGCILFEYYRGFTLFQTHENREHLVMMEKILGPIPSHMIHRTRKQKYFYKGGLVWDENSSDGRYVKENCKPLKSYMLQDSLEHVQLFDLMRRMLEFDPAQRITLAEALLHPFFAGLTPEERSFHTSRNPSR

[35] = target: Serine/threonine-protein kinase TAO1 (Homo sapiens) (UniProt Q7L7X3); assay: Inhibition of TAO1 (unknown origin) at 1 uM
Sequence of Serine/threonine-protein kinase TAO1 (Homo sapiens) (Q7L7X3 whole entry): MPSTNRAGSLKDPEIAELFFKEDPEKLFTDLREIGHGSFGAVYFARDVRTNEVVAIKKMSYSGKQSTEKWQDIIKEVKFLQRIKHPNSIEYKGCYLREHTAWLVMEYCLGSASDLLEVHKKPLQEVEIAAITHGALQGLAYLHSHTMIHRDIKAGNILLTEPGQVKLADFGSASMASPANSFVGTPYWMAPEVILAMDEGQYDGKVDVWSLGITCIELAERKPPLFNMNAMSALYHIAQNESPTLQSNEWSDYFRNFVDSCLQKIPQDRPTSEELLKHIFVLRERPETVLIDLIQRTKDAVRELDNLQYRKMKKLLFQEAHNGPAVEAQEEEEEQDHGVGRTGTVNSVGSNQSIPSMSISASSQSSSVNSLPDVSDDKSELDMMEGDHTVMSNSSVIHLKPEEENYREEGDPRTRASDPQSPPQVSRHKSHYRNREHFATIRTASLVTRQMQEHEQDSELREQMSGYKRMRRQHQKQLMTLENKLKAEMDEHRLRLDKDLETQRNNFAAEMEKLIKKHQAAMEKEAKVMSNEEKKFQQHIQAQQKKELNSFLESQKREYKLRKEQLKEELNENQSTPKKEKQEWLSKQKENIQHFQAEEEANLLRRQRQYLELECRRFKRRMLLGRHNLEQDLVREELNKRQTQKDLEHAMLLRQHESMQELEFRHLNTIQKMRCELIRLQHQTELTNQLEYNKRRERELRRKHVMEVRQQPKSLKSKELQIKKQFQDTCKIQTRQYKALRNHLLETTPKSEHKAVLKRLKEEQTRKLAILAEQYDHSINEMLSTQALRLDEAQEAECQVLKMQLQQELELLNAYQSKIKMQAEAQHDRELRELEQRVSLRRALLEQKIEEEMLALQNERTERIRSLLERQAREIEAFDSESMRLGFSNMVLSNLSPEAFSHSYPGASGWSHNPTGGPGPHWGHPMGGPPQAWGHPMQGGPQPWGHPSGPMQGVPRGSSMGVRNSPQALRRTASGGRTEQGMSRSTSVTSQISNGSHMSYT

[36] = target: Serine/threonine-protein kinase 25 (Homo sapiens) (UniProt O00506); assay: Inhibition of YSK1 (unknown origin) at 1 uM
[37] = target: Fibroblast growth factor receptor 4 (Homo sapiens) (UniProt P22455); assay: Inhibition of FGFR4 (unknown origin) at 1 uM
[38] = target: Serine/threonine-protein kinase BRSK1 (Homo sapiens) (UniProt Q8TDC3); assay: Inhibition of BrSK1 (unknown origin) at 1 uM
[39] = target: Protein kinase C eta type (Homo sapiens) (UniProt P24723); assay: Inhibition of PKCeta (unknown origin) at 1 uM
[40] = target: 3-phosphoinositide-dependent protein kinase 1 (Homo sapiens) (UniProt O15530); assay: Inhibition of PDK1 (unknown origin) at 1 uM by direct binding assay
[41] = target: Mitogen-activated protein kinase kinase kinase 2 (Homo sapiens) (UniProt Q9Y2U5); assay: Inhibition of MEKK2 (unknown origin) at 1 uM

- inhibition [1]: 0.2%
- inhibition [2]: 9%
- inhibition [3]: -6.5%
- inhibition [4]: 3.5%
- clearance (Canis familiaris): 14 mL/min/kg
- inhibition [5]: -4.5%
- inhibition [6]: 7.3%
- inhibition [7]: 7.2%
- inhibition [8]: 20.1%
- inhibition [9]: 7.5%
- inhibition [10]: -7.5%
- inhibition [11]: 3.6%
- inhibition [12]: 3%
- inhibition [13]: 2.2%
- inhibition [14]: 3.4%
- inhibition [15]: -3.9%
- inhibition [16]: -3.8%
- inhibition [17]: 6.9%
- inhibition [18]: 14.9%
- inhibition [19]: -2.3%
- inhibition [20]: 1.9%
- inhibition [21]: -4.8%
- inhibition [22]: 0%
- inhibition [23]: -0.4%
- inhibition [24]: 3%
- inhibition [25]: 2.5%
- inhibition [26]: 11.3%
- inhibition [27]: 2.4%
- inhibition [28]: 3%
- inhibition [29]: -5.5%
- inhibition [30]: -1.3%
- inhibition [31]: -0.3%
- inhibition [32]: 7%
- CLH (Liver microsome): 6 mL/min/kg
- clearance (Mus musculus): 43 mL/min/kg
- inhibition [33]: 50%
- inhibition [34]: 2.9%
- inhibition [35]: -3.8%
- inhibition [36]: -3.4%
- inhibition [37]: -3.5%
- inhibition [38]: 0.8%
- inhibition [39]: -8%
- inhibition [40]: -8%
- inhibition [41]: 9.2%
SMILES: Cc1c(-c2cc(Nc3cc4n(n3)CCN(C)C4)c(=O)[nH]n2)ccc(F)c1NC(=O)c1cc2ccccc2s1
